Source: patent publication US20230105457A1, “Immunogenic Compounds For Treatment Of Adrenal Cancer” (ENTEROME S.A., priority 2019, published 2023)

Experiments:
[1] = system: splenocytes of β/A2/DR3 mice; assay: ELISPOT-IFNγ assay on splenocytes of vaccinated β/A2/DR3 mice (Example 2); type: in vivo, mouse; conditions: label = vaccination peptide
Excerpt: Briefly, 14 β/A2/DR3 mice were assigned randomly (based on mouse sex and age) to two experimental groups, each immunized with a specific vaccination peptide (vacc-pAg) combined to a common helper peptide (h-pAg) (as outlined in Table 7 below). The vacc-pAg were compared in couples (group 1 vs. group 2). Thereby, both native and optimized versions of a single peptide were compared in each wave.
The animals were immunized on day 0 (d0) with a prime injection, and on d14 with a boost injection. Each mouse was injected s.c. at tail base with 100 μL of an oil-based emulsion that contained: • 100 μg of vacc-pAg (25 μL of 4 mg/mL stock per mouse); • 150 μg of h-pAg (15 μL of 10 mg/mL stock per mouse); • 10 μL of PBS to reach a total volume of 50 μL (per mouse); • Incomplete Freund's Adjuvant (IFA) added at 1:1 (v:v) ratio (50 μL per mouse).
A separate emulsion was prepared for each vacc-pAg, as follows: IFA reagent was added to the vacc-pAg/h-pAg/PBS mixture in a 15 mL tube and mixed on vortex for repeated cycles of 1 min until forming a thick emulsion.
Seven days after the boost injection (i.e. on d21), the animals were euthanized and the spleen was harvested. Splenocytes were prepared by mechanical disruption of the organ followed by 70 μm-filtering and Ficoll density gradient purification.
The splenocytes were immediately used in an ELISPOT-IFNγ assay (Table 8). Experimental conditions were repeated in quadruplets, using 2*105 total splenocytes per well, and were cultured in presence of vacc-pAg (10 μM), Concanavalin A (ConA, 2.5 μg/mL) or medium-only to assess for their capacity to secrete IFNγ. The commercial ELISPOT-IFNγ kit (Diaclone Kit Mujrine IFNγ ELISpot) was used following the manufacturer's instructions, and the assay was performed after about 16 h of incubation.
Spots were counted on a Grand ImmunoSpot® S6 Ultimate UV Image Analyzer interfaced to the ImmunoSpot 5.4 software (CTL-Europe). Data plotting and statistical analysis were performed with the Prism-5 software (GraphPad Software Inc.).
The cell suspensions were also analyzed by flow cytometry, for T cell counts normalization. The monoclonal antibody cocktail (data not shown) was applied on the purified leucocytes in presence of Fc-block reagents targeting murine (1:10 diluted ‘anti-mCD16/CD32 CF11 clone’—internal source) Fc receptors. Incubations were performed in 96-well plates, in the dark and at 4° C. for 15-20 minutes. The cells were washed by centrifugation after staining to remove the excess of monoclonal antibody cocktail, and were re-suspended in PBS for data acquisition.
The data were then normalized as a number of specific spots (the average counts obtained in the ‘medium only’ condition being subtracted) per 10^6 total T cells.
The individual average values (obtained from the quadruplicates) were next used to plot the group average values (see FIG. 3A). As the functional capacity of T cells might vary from individual to individual, the data were also expressed as the percentage of the ConA response per individual (see FIG. 3B).

[2] = system: U87 cells (expressing IL13RA2); assay: In vitro cytotoxicity of T cells from immunized HHD mice against U87 cells (Example 4); type: cell-based; conditions: CD3+ T cells of mice immunized with the peptide, 72 h co-culture with U87-MG
Method: Briefly, […] from mice immunized with IL13RA2-H or IL13RA2-B were used. These cells were obtained after sorting of splenocyte from immunized mice and were placed on top of U87 cells (expressing IL13RA2).
In more detail, CD3+ T cells were purified from splenocytes of HHD mice immunized with IL13RA2-H ([…], SEQ ID No 263) or IL13RA2-B ([…]). To this end, B6 β2m^ko HHD/DR3 mice were injected s.c. at tail base with 100 μL of an oil-based emulsion containing vaccination peptide plus helper peptide plus CFA (complete Freund's adjuvant), at day 0 and day 14. On d21, i.e. seven days after the boost injection, the animals were euthanized and the spleen was harvested. Splenocytes were prepared by mechanical disruption of the organ. CD3+ purification was performed using the mouse total T cells isolation kit from Miltenyi biotec using the recommended procedure. Efficient purification of cells and viability was validated by cytometry using appropriate marker for viability, CD8, CD4, CD3, and CD45. […]
72 hours after co-culture of U87-MG cells and CD3+ T cells, all cells from the wells were harvested and specific U87-MG cell death was evaluated after immunostaining of CD45 negative cells with DAPI and fluorescent annexin V followed by cytometry analysis.

[3] = system: CD8 T cells from PBMC of HLA-A*02 healthy donors; assay: Detection of peptide-specific CD8 T cells with pMHC multimers after in vitro amplification (Example 14); type: cell-based, human; conditions: one HLA-A2 healthy donor, after in vitro amplification with bacteria peptide loaded T2 cells
Method: Identification and quantification of T cells specific clones were performed using peptide MHC multimers (pMHC). pMHC multimers are recombinantly produced and coupled with fluorescent labels. Binding of pMHC multimers to T cells allows identification and sorting by flow cytometry of specific T cells harboring TCRs able to specifically recognize selected pMHC complexes.
In vitro amplification method and specific pMHC multimers have been used for identification of IL13RA2-L-, BIRC5-B1- and FOXM1-B2-specific T cells. pMHC multimers were generated for all the bacteria peptides and their respective human counterpart. PBMCs from several HLA-A*02 healthy donors (up to 19 donors) were collected, enriched after CD137 and CD8 selection and subjected to multiple rounds of in vitro amplification with bacteria peptides loaded T2 cells to increase the number of specific T cell clones. Detection of bacteria and human peptide-specific CD8 T cells using cytometry analysis with the fluorescent multimer was performed on enriched CD8 T cell populations.

In the case of “WLPFGFILI [IL13RA2-H, reference compound]”, the “Percentage of ConA-induced response (mean+/−SEM), ELISPOT-IFNγ” value ([1]; ex vivo restimulation with IL13RA2-B pAg (10 μM)) is reported as 2.0%+/−0.8, the “Percentage of ConA-induced response (mean+/−SEM), ELISPOT-IFNγ” value ([1]; ex vivo restimulation with IL13RA2-H pAg (10 μM)) is reported as 1.1%+/−0.8 and the “U87 cell lysis (in words)” value [2] is reported as “not”. For the same sequence, the “Peptide-specific CD8 T cells detected (pMHC multimer)” value [3] was 0.22%.
